This is an account of results in PubChem BioAssay AID2060901 (Molecular Pharmacology Branch, DTP, NCI, 2025).

Where “and” joins values, the source holds several entries; their conditions need not be identical. Equal entries are not always repeated.

This experiment deals with 422866-222-R5-J1-PDC complex spheroids viability. The experiment can be described thus: Anticancer human tumor 422866-222-R5-J1-PDC patient-derived pancreatic adenocarcinoma cell line growth inhibition [RAS]. The settings on record: for viability, T/C: stronger effect = lower value. The gist of the method:
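Tumour cells grown as complex spheroids with HUVEC endothelial cells and mesenchymal stem cells, treated with RAS pathway inhibitor combinations. Each agent spans half-log steps from near clinical Cmax, or 10 microM where Cmax is unknown.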

[1] abbreviates: curve of first compound, second compound 0.000949 µM.
The mark [2] stands for this setting: curve of first compound, second compound 0.003 µM.
[3] abbreviates: curve of first compound, second compound 0.00949 µM.
[4] abbreviates: curve of first compound, second compound 0.03 µM.
[5] abbreviates: curve of first compound, second compound 0.0949 µM.
Setting [6] is: curve of first compound, second compound 0.3 µM.
The mark [7] stands for this setting: second compound 0.000949 µM, first compound 0.0316 µM.
The mark [8] stands for this setting: second compound 0.000949 µM, first compound 0.1 µM.
[9] abbreviates: second compound 0.000949 µM, first compound 0.316 µM.
[10] abbreviates: second compound 0.000949 µM, first compound 1 µM.
Where [11] appears, read: second compound 0.003 µM, first compound 0.0316 µM.
[12] abbreviates: second compound 0.003 µM, first compound 0.1 µM.
[13] abbreviates: second compound 0.003 µM, first compound 0.316 µM.
Setting [14] is: second compound 0.003 µM, first compound 1 µM.
[15] abbreviates: second compound 0.00949 µM, first compound 0.0316 µM.
Where [16] appears, read: second compound 0.00949 µM, first compound 0.1 µM.
The mark [17] stands for this setting: second compound 0.00949 µM, first compound 0.316 µM.
Setting [18] is: second compound 0.00949 µM, first compound 1 µM.
Where [19] appears, read: second compound 0.03 µM, first compound 0.0316 µM.
Setting [20] is: second compound 0.03 µM, first compound 0.1 µM.
Where [21] appears, read: second compound 0.03 µM, first compound 0.316 µM.
[22] abbreviates: second compound 0.03 µM, first compound 1 µM.
Setting [23] is: second compound 0.0949 µM, first compound 0.0316 µM.
[24] abbreviates: second compound 0.0949 µM, first compound 0.1 µM.
Where [25] appears, read: second compound 0.0949 µM, first compound 0.316 µM.
Setting [26] is: second compound 0.0949 µM, first compound 1 µM.
Setting [27] is: second compound 0.3 µM, first compound 0.0316 µM.
[28] abbreviates: second compound 0.3 µM, first compound 0.1 µM.
Setting [29] is: second compound 0.3 µM, first compound 0.316 µM.
Where [30] appears, read: second compound 0.3 µM, first compound 1 µM.
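Also: spheroids exposed to compounds for 7 days.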
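For viability, T/C in this document: 100% = DMSO vehicle control viability.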

Broadly, the IC50 is the concentration at which inhibition is half-maximal. In general, viability, T/C refers to the result in the treated group divided by that in the control group, in per cent. With `CC(Nc1ccc2c(c1)OCCn1cc(N3C(=O)OCC3C(F)F)nc1-2)C(N)=O` (stereo not given) + CCn1c(-c2cccnc2C(C)OC)c2c3cc(ccc31)N1CCOC(CC(NC(=O)C(C(C)C)N(C)C(=O)C3(F)CCN(C(=O)C#CC(C)(C)N(C)C)CC3)C(=O)N3CCCC(N3)C(=O)OCC(C)(C)C2)C1, the IC50 runs as follows: under setting [1], below 31.6 nM; under setting [2], below 31.6 nM; under setting [3], below 31.6 nM; under setting [4], below 31.6 nM; under setting [5], below 31.6 nM; under setting [6], below 31.6 nM. Besides, the viability, T/C reads like this: under setting [7], 18.2%; under setting [8], 15.9%; under setting [9], 10.3%; under setting [10], 9.14%; (second compound 0.000949 µM, first compound 3.16 µM) 26.9%; (second compound 0.000949 µM, first compound 10 µM) 6.64%. The viability, T/C under setting [11] is 14.5%; the viability, T/C under setting [12] is 11.7%; the viability, T/C under setting [13] is 9.43%; the viability, T/C under setting [14] is 9.79%; the viability, T/C (second compound 0.003 µM, first compound 3.16 µM) was 19.8%; the viability, T/C (second compound 0.003 µM, first compound 10 µM) is 5.92%. For the same compound, the viability, T/C was 14.6% under setting [15]; 11.4% under setting [16]; 9.65% under setting [17]; 6.24% under setting [18]; 17.5% (second compound 0.00949 µM, first compound 3.16 µM); 5.13% (second compound 0.00949 µM, first compound 10 µM). Further, the viability, T/C is 12.7% under setting [19]; 10.8% under setting [20]; 8.08% under setting [21]; 5.84% under setting [22]; 16.7% (second compound 0.03 µM, first compound 3.16 µM); 4.66% (second compound 0.03 µM, first compound 10 µM). Further, the viability, T/C is 13.7% under setting [23]; 9.18% under setting [24]; 8.36% under setting [25]; 5.71% under setting [26]; 17.2% (second compound 0.0949 µM, first compound 3.16 µM); 3.5% (second compound 0.0949 µM, first compound 10 µM). Also, the viability, T/C is 10.9% under setting [27]; 8.1% under setting [28]; 5.84% under setting [29]; 3.47% under setting [30]; 10% (second compound 0.3 µM, first compound 3.16 µM); 2.74% (second compound 0.3 µM, first compound 10 µM).

On to `CC(C)n1nc(-c2ccc3oc(N)nc3c2)c2c(N)ncnc21`, for which the viability, T/C is, setting by setting: (compound 0.000316 µM) 103% [middle of 4 runs]; (compound 0.001 µM) 82.4% [middle of 4 runs]; (compound 0.01 µM) 94% [middle of 4 runs]. Besides, the IC50 (curve of compound) is above 100 nM.

As to `C[C@@H](NC(=O)c1ncnc(N)c1Cl)c1ncc(C(=O)Nc2cc(C(F)(F)F)c(Cl)cn2)s1`, the viability, T/C is, setting by setting: (compound 0.0316 µM) 131% and 103% (2×) and 113%; (compound 0.1 µM) 124% and 116% (2×) and 104%; (compound 0.316 µM) 119% [middle of 4 runs]; (compound 1 µM) 118% [middle of 4 runs]; (compound 3.16 µM) 104% (2×) and 83.4% and 92.5%; (compound 10 µM) 76.6% [middle of 4 runs]. The IC50 (curve of compound) is above 10000 nM.

Turning to `CCN1CCN(Cc2ccc(Nc3ncc(F)c(-c4cc(F)c5nc(C)n(C(C)C)c5c4)n3)nc2)CC1` + CCn1c(-c2cccnc2C(C)OC)c2c3cc(ccc31)N1CCOC(CC(NC(=O)C(C(C)C)N(C)C(=O)C3(F)CCN(C(=O)C#CC(C)(C)N(C)C)CC3)C(=O)N3CCCC(N3)C(=O)OCC(C)(C)C2)C1, the IC50 is, setting by setting: under setting [1], below 3.16 nM; under setting [2], below 3.16 nM; under setting [3], below 3.16 nM; under setting [4], below 3.16 nM; under setting [5], below 3.16 nM; under setting [6], below 3.16 nM. Moreover, the viability, T/C is 30.8% (second compound 0.000949 µM, first compound 0.00316 µM); 26.9% (second compound 0.000949 µM, first compound 0.01 µM); 27.2% under setting [7]; 25.8% under setting [8]; 30% under setting [9]; 39% under setting [10]. Moreover, the viability, T/C reads like this: (second compound 0.003 µM, first compound 0.00316 µM) 23.8%; (second compound 0.003 µM, first compound 0.01 µM) 24.9%; under setting [11], 23.7%; under setting [12], 20.3%; under setting [13], 26.3%; under setting [14], 37.5%. Also, the viability, T/C reads like this: (second compound 0.00949 µM, first compound 0.00316 µM) 25%; (second compound 0.00949 µM, first compound 0.01 µM) 21.9%; under setting [15], 20%; under setting [16], 21.5%; under setting [17], 25.3%; under setting [18], 37.5%. Also, the viability, T/C by setting is: (second compound 0.03 µM, first compound 0.00316 µM) 20.6%; (second compound 0.03 µM, first compound 0.01 µM) 19.9%; under setting [19], 16.8%; under setting [20], 19.1%; under setting [21], 26.7%; under setting [22], 40.3%. The viability, T/C was 18.5% (second compound 0.0949 µM, first compound 0.00316 µM); 21.1% (second compound 0.0949 µM, first compound 0.01 µM); 19.7% under setting [23]; 18.6% under setting [24]; 27.5% under setting [25]; 37.2% under setting [26]. The viability, T/C (second compound 0.3 µM, first compound 0.00316 µM) is 19.9%; the viability, T/C (second compound 0.3 µM, first compound 0.01 µM) was 18.8%; the viability, T/C under setting [27] is 18.8%; the viability, T/C under setting [28] was 17.1%; the viability, T/C under setting [29] was 24%; the viability, T/C under setting [30] was 34.9%.
